Each structure is given as a SMILES string.

The target in one data set is T1, human H4 receptor (Homo sapiens, UniProt Q9H3N8).
T1 construct: expressed in transfected cells; host or cells: HEKf cells infected with baculovirus
The data set can be described thus: H4 Antagonist Functional cAMP Gi Assay. As to conditions: HEKf cells expressing human H4 receptor; functional antagonist pKb by Cheng-Prusoff vs histamine; read-out: Human H4 cAMP fpKb (converted). The data set is classed as cell-based. As for the experimental part: HEKf cells were infected overnight using baculovirus expressing the human H4 receptor, then centrifuged at 1,200 rpm for 5 min, frozen in cell freezing medium (Sigma) and stored at −150° C. On the day of assay, the cells were thawed and resuspended in HBSS with 500 nM IBMX to achieve a density of 1,500 cells/well. H4 ligands were prepared in DMSO and stamped by LabCyte ECHO acoustic dispensing at 25 nL in low volume plates. 10 μL/well cells were plated in the presence of 1 μM forskolin, subjected to centrifugation at 1,200 rpm for 1 min and incubated for 30 min prior to addition of Cisbio cAMP detection reagents to a total volume 20 μL/well. […] Following detection reagent addition and shaking at room temperature for 60 min, cAMP accumulation was measured using HTRF on a PheraStar plate reader. EC50 values were generated using a 4-parameter logistical fit equation to quantify agonist potencies. Functional antagonist affinity values were generated using the Cheng-Prusoff equation to calculate a pKb value using the antagonist assay data.

In a further data set the target is hERG (Homo sapiens, UniProt Q12809). Description: hERG single-concentration assay (QPatch automated patch clamp, CHO cells, 30 μM). The conditions noted are these: CHO cells stably expressing hERG. Format: cell-based. From the text: Series resistance (4-15 MΩ) was compensated by >80%.
Sequence of hERG (Q12809 whole entry): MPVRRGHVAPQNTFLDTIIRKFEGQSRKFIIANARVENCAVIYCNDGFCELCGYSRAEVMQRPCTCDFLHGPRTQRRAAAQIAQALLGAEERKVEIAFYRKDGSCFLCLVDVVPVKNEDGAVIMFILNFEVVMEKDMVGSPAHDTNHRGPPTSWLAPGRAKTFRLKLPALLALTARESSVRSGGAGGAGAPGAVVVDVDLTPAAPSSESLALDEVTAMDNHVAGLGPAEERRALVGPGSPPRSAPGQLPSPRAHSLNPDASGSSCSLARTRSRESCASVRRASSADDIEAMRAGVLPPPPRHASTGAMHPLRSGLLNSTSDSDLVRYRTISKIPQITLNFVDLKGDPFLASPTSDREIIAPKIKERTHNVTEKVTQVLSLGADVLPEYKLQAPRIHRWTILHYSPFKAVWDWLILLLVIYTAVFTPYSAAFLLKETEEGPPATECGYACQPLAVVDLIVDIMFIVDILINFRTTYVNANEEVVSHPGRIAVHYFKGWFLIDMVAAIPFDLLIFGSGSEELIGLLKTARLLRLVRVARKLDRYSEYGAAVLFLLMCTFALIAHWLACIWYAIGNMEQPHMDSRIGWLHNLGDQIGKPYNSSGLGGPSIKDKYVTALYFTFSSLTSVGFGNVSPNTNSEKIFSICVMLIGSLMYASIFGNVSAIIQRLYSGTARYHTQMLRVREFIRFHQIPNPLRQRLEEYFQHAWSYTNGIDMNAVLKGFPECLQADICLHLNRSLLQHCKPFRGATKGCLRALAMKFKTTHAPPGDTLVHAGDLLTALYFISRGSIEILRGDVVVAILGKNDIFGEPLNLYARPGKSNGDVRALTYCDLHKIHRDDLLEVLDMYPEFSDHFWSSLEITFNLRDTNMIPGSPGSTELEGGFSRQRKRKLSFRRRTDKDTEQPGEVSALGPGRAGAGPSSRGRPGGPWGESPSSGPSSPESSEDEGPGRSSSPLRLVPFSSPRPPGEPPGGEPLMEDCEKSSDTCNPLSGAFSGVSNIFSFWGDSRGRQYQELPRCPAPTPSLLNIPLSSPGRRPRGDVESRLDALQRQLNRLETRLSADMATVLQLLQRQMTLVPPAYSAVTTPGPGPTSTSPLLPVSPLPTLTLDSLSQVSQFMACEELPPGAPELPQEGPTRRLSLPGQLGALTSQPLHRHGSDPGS
(Block of hERG is tested as a sign of cardiac risk.)

T1 sequence (Q9H3N8 whole entry): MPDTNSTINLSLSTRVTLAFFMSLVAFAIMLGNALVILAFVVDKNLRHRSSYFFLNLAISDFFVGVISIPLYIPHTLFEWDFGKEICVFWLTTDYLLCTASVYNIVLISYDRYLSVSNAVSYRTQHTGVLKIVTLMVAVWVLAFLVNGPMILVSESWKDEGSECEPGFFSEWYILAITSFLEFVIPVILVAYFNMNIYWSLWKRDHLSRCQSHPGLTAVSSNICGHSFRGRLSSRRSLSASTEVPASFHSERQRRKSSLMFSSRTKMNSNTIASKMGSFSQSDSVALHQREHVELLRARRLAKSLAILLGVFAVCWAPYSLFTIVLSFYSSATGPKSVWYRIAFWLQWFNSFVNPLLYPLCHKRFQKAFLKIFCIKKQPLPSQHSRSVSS

As for `CN[C@@H]1CCN(c2nc(N)nc3c2OCCN3)C1` [Example 1-1, (R)-4-(3-(Methylamino)pyrrolidin-1-yl)-7,8-dihydro-6H-pyrimido[5,4-b][1,4]oxazin-2-amine], the Kb on human H4 receptor is 501 nM. Further, on hERG, 30 µM produced 25% inhibition.

Regarding `CC[C@@H]1COc2c(nc(N)nc2N2CC[C@@H](NC)C2)N1` [Example 1-3, (R)-7-Ethyl-4-((R)-3-(methylamino)pyrrolidin-1-yl)-7,8-dihydro-6H-pyrimido[5,4-b][1,4]oxazin-2-amine], the Kb on human H4 receptor is 1 nM. This compound had an inhibition at 30 µM against hERG of 18%.

Take `CN[C@@H]1CCN(c2nc(N)nc3c2OC[C@H](C(C)C)N3)C1` [Example 1-5, (S)-7-Isopropyl-4-((R)-3-(methylamino)pyrrolidin-1-yl)-7,8-dihydro-6H-pyrimido[5,4-b][1,4]oxazin-2-amine]: on human H4 receptor, the Kb was 25.1 nM. On hERG, at 30 µM the inhibition was 68%.

As to `CN[C@@H]1CCN(c2nc(N)nc3c2OCC(C(F)(F)F)N3)C1` (stereo partly drawn) [Example 1-8, 4-((R)-3-(Methylamino)pyrrolidin-1-yl)-7-(trifluoromethyl)-7,8-dihydro-6H-pyrimido[5,4-b][1,4]oxazin-2-amine], the Kb on human H4 receptor was 10 nM. For the same compound, the inhibition at 30 µM against hERG was found to be 19%.

Take `CN[C@@H]1CCN(c2nc(N)nc3c2OC[C@@H](COC)N3)C1` [Example 1-9, (R)-7-(Methoxymethyl)-4-((R)-3-(methylamino)pyrrolidin-1-yl)-7,8-dihydro-6H-pyrimido[5,4-b][1,4]oxazin-2-amine]: on human H4 receptor, the Kb was 10 nM. The compound also came in with an inhibition at 30 µM on hERG of 12%.

`CN[C@@H]1CCN(c2nc(N)nc3c2OC[C@@H]([C@@H](C)OC)N3)C1` [Example 1-10, (S)-7-((R)-1-Methoxyethyl)-4-((R)-3-(methylamino)pyrrolidin-1-yl)-7,8-dihydro-6H-pyrimido[5,4-b][1,4]oxazin-2-amine]: the Kb at human H4 receptor was 6.31 nM. The inhibition at 30 µM against hERG is 12%.

`CN[C@@H]1CCN(c2nc(N)nc3c2OC[C@@H](C(C)(C)OC)N3)C1` [Example 1-12, (S)-7-(2-Methoxypropan-2-yl)-4-((R)-3-(methylamino)pyrrolidin-1-yl)-7,8-dihydro-6H-pyrimido[5,4-b][1,4]oxazin-2-amine]: the Kb at human H4 receptor was 2 nM. On hERG, this compound had an inhibition at 30 µM of 8.3%.

As for `CN[C@@H]1CCN(c2nc(N)nc3c2OCC(C)(C)N3)C1` [Example 1-14, (R)-7,7-Dimethyl-4-(3-(methylamino)pyrrolidin-1-yl)-7,8-dihydro-6H-pyrimido[5,4-b][1,4]oxazin-2-amine], at human H4 receptor, the Kb is 6.31 nM. Further, testing at 30 µM on hERG gave an inhibition of 11%.

`CN[C@@H]1CCN(c2nc(N)nc3c2OC(C)CN3)C1` (stereo partly drawn) [Example 1-15, 6-Methyl-4-((R)-3-(methylamino)pyrrolidin-1-yl)-7,8-dihydro-6H-pyrimido[5,4-b][1,4]oxazin-2-amine]: the Kb on human H4 receptor is 398 nM. Further, the inhibition at 30 µM at hERG turned out to be 1.5%.

As for `CN[C@@H]1CCN(c2nc(N)nc3c2OCC2CCCN32)C1` (stereo partly drawn) [Example 1-21, 4-((R)-3-(Methylamino)pyrrolidin-1-yl)-6a,7,8,9-tetrahydro-6H-pyrimido[5,4-b]pyrrolo[1,2-d][1,4]oxazin-2-amine], the Kb on human H4 receptor is 12.6 nM. This compound also returned an inhibition at 30 µM at hERG of 8.5%.

For `CN[C@@H]1CCN(c2nc(N)nc3c2OC[C@@]2(C)CCCN32)C1` [Example 1-22, (R)-6a-Methyl-4-((R)-3-(methylamino)pyrrolidin-1-yl)-6a,7,8,9-tetrahydro-6H-pyrimido[5,4-b]pyrrolo[1,2-d][1,4]oxazin-2-amine], on human H4 receptor, the Kb was 251 nM. Moreover, the inhibition at 30 µM on hERG turned out to be 45%.

As to `Nc1nc2c(c(N3CC[C@@H](N)C3)n1)OCC(C(F)(F)F)N2` (stereo partly drawn) [Example 2-3, 4-((R)-3-Aminopyrrolidin-1-yl)-7-(trifluoromethyl)-7,8-dihydro-6H-pyrimido[5,4-b][1,4]oxazin-2-amine], at human H4 receptor, the Kb was 10 nM. This compound gave an inhibition at 30 µM on hERG of 28%.

As for `CNC1CN(c2nc(N)nc3c2OC[C@@H]([C@@H](C)OC)N3)C1` [Example 3-4, (S)-7-((R)-1-Methoxyethyl)-4-(3-(methylamino)azetidin-1-yl)-7,8-dihydro-6H-pyrimido[5,4-b][1,4]oxazin-2-amine], the Kb on human H4 receptor was 12.6 nM. In addition, at hERG, testing at 30 µM gave an inhibition of 12%.

In the case of `CC(C)[C@@H]1COc2c(nc(N)nc2N2CCN(C)CC2)N1` [Example 5-1, (R)-7-Isopropyl-4-(4-methylpiperazin-1-yl)-7,8-dihydro-6H-pyrimido[5,4-b][1,4]oxazin-2-amine], the Kb on human H4 receptor was 3.16 nM. The inhibition at 30 µM on hERG was 44%.

Consider `CC(C)[C@@H]1COc2c(nc(N)nc2N2CCNCC2)N1` [Example 6-1, (R)-7-Isopropyl-4-(piperazin-1-yl)-7,8-dihydro-6H-pyrimido[5,4-b][1,4]oxazin-2-amine], for which the Kb at human H4 receptor is 3.98 nM. The compound also displayed an inhibition at 30 µM at hERG of 13%.

Regarding `CN[C@@H]1CCN(c2ncnc3c2OC[C@@H](C(C)C)N3)C1` [Example 7-1, (R)-1-((R)-7-Isopropyl-7,8-dihydro-6H-pyrimido[5,4-b][1,4]oxazin-4-yl)-N-methylpyrrolidin-3-amine], the Kb on human H4 receptor is 0.631 nM. Besides, 30 µM produced 31% inhibition at hERG.

Take `CN[C@@H]1CCN(c2ncnc3c2OCC(COC)N3)C1` (stereo partly drawn) [Example 7-3, (3R)-1-(7-(Methoxymethyl)-7,8-dihydro-6H-pyrimido[5,4-b][1,4]oxazin-4-yl)-N-methylpyrrolidin-3-amine]: the Kb on human H4 receptor is 316 nM. For the same compound, the inhibition at 30 µM against hERG was 48%.

On to `CC(C)[C@@H]1COc2c(ncnc2N2CC[C@@H](N)C2)N1` [Example 8-1, (R)-1-((R)-7-Isopropyl-7,8-dihydro-6H-pyrimido[5,4-b][1,4]oxazin-4-yl)pyrrolidin-3-amine], for which the Kb on human H4 receptor was 5.01 nM. Also, the inhibition at 30 µM at hERG turned out to be 21%.

Take `CNC1CN(c2ncnc3c2OC[C@@H](C(C)C)N3)C1` [Example 9-1, (R)-1-(7-Isopropyl-7,8-dihydro-6H-pyrimido[5,4-b][1,4]oxazin-4-yl)-N-methylazetidin-3-amine]: the Kb on human H4 receptor was 3.98 nM. This compound gave an inhibition at 30 µM against hERG of 18%.

Take `CN[C@@H]1CCN(c2nc(N)nc3c2OCCCN3)C1` [Example 11-1, (R)-4-(3-(Methylamino)pyrrolidin-1-yl)-6,7,8,9-tetrahydropyrimido[5,4-b][1,4]oxazepin-2-amine]: the Kb at human H4 receptor is 200 nM.

As to `CN[C@@H]1CCN(c2nc(N)nc3c2OCC[C@H](C(C)C)N3)C1` [Example 11-6, (R)-8-Isopropyl-4-((R)-3-(methylamino)pyrrolidin-1-yl)-6,7,8,9-tetrahydropyrimido[5,4-b][1,4]oxazepin-2-amine], the Kb at human H4 receptor was 12.6 nM.

Turning to `CN[C@@H]1CCN(c2nc(N)nc3c2OCC(C)CN3)C1` (stereo partly drawn) [Example 11-7, 7-Methyl-4-((R)-3-(methylamino)pyrrolidin-1-yl)-6,7,8,9-tetrahydropyrimido[5,4-b][1,4]oxazepin-2-amine], the Kb at human H4 receptor was 251 nM.

Consider `CCC1CNc2nc(N)nc(N3CC[C@@H](NC)C3)c2OC1` (stereo partly drawn) [Example 11-8, 7-Ethyl-4-((R)-3-(methylamino)pyrrolidin-1-yl)-6,7,8,9-tetrahydropyrimido[5,4-b][1,4]oxazepin-2-amine], for which the Kb at human H4 receptor was 31.6 nM.

Consider `CN[C@@H]1CCN(c2nc(N)nc3c2OCC[C@@H]2CCCN32)C1` [Example 11-10, (S)-4-((R)-3-(Methylamino)pyrrolidin-1-yl)-6,7,7a,8,9,10-hexahydropyrimido[5,4-b]pyrrolo[1,2-d][1,4]oxazepin-2-amine], for which the Kb on human H4 receptor is 794 nM.

For `CC(C)[C@H]1CCOc2c(nc(N)nc2N2CC[C@@H](N)C2)N1` [Example 12-2, (R)-4-((R)-3-Aminopyrrolidin-1-yl)-8-isopropyl-6,7,8,9-tetrahydropyrimido[5,4-b][1,4]oxazepin-2-amine], the Kb at human H4 receptor was 39.8 nM.

`CNC1CN(c2nc(N)nc3c2OCC[C@H](C(C)C)N3)C1` [Example 13-2, (R)-8-Isopropyl-4-(3-(methylamino)azetidin-1-yl)-6,7,8,9-tetrahydropyrimido[5,4-b][1,4]oxazepin-2-amine]: at human H4 receptor, the Kb was 15.8 nM.

In the case of `CN[C@@H]1CCN(c2ncnc3c2OCC[C@H](C(C)C)N3)C1` [Example 14-2, (R)-1-((R)-8-Isopropyl-6,7,8,9-tetrahydropyrimido[5,4-b][1,4]oxazepin-4-yl)-N-methylpyrrolidin-3-amine], at human H4 receptor, the Kb was 100 nM.

Compound `CN[C@@H]1CCN(c2cc(NCC3CC3)nc(N)n2)C1` [PF-3893787, reference compound] displayed an inhibition at 30 µM against hERG of 67%.

Turning to `Cc1cc(C)c2nc(-c3cnc(NCCCC4CCN(C)CC4)nc3C)[nH]c2c1` [Toreforant, reference compound], the Kb at human H4 receptor is 20 nM. On hERG, this compound came in with an inhibition at 30 µM of 89%.

For orientation: inhibition means how much of the control response was suppressed. Low values mean little suppression, high ones strong suppression.

These data come from US20240317775A1, “H4 Antagonist Compounds” (HEPTARES THERAPEUTICS LIMITED, priority 2020, published 2024).
